Measured values from BindingDB's records for doi:10.1038/nchembio.662 (University of California San Francisco, 2011).

Key:
[1] = biological target: D(3) dopamine receptor (Homo sapiens, UniProt P35462); assay: Binding Assay; conditions: pH 7.4; 22 °C
Protocol: (§1) Affinities for D3-dopaminergic, D2-dopaminergic and beta2-adrenergic receptors were determined by radioligand competition binding at the National Institute of Mental Health Psychoactive Drug Screening Program.

[2] = biological target: D(2) dopamine receptor (Homo sapiens, UniProt P14416); assay: Binding Assay; conditions: pH 7.4; 22 °C
Sequence of D(2) dopamine receptor (P14416 whole entry): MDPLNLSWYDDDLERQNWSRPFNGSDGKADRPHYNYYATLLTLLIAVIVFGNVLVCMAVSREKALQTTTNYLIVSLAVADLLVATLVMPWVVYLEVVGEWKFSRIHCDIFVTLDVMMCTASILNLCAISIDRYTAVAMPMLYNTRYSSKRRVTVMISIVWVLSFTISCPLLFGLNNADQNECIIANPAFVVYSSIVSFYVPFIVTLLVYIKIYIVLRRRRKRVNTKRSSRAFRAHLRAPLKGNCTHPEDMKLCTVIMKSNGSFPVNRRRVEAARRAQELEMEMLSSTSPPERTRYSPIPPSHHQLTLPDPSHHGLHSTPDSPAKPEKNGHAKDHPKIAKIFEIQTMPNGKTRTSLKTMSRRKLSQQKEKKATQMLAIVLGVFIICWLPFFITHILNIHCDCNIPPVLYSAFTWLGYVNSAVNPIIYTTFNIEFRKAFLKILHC
Protocol: as §1

Sequence of D(3) dopamine receptor (P35462 as listed by the source): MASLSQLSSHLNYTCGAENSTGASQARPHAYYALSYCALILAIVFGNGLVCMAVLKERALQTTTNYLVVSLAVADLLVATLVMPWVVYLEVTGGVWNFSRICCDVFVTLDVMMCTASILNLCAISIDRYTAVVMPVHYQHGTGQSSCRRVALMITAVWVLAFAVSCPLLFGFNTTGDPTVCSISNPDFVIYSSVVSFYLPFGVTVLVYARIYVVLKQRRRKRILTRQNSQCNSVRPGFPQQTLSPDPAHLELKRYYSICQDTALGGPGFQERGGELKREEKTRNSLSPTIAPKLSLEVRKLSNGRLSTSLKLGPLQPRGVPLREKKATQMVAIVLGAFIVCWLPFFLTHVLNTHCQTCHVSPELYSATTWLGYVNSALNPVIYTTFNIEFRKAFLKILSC

| Compound | Ki [1] [µM] | Ki [2] [µM] |
| --- | --- | --- |
| CNCc1ccc(-c2cc(Cl)cc(Cl)c2)o1 [Azanium analog, 55] | 0.2 | – |
| O=c1oc2c(CN3CCCC3)c(O)ccc2c2c1CCC2 [ZINC 118327, 8] | > 10 | – |
| CC(C)(CO)NCc1ccc(-c2ccccc2)o1 [ZINC 529108, 67] | 9.58 | – |
| C[C@H](O)CNCc1ccc(-c2cccc(Cl)c2)o1 [ZINC 4842613, 71] | 0.488 | – |
| Clc1ccc(Cl)c(-c2ccc(CNC3CC3)o2)c1 [ZINC 4868730, 70] | 2.71 | 6.61 |
| CC(C)(C)NCc1ccc(-c2ccccc2)o1 [ZINC 4942833, 65] | 8.67 | 2.9 |
| CC(C)(CO)NCc1ccc(-c2ccc(F)c(Cl)c2)o1 [ZINC 4942963, 64] | 6.81 | – |
| Cc1ccc(-c2ccc(CNC(C)(C)CO)o2)cc1Cl [ZINC 4999756, 68] | 2.74 | – |
| CC(C)(C)NCc1ccc(-c2ccccc2Cl)o1 [ZINC 6743145, 66] | 5.46 | – |
| CC[C@@H](CO)NCc1ccc(-c2cccc(Cl)c2C)o1 [ZINC 7538899, 72] | 0.817 | – |
| CC(C)NCc1ccc(-c2ccccc2)o1 [ZINC 10436232, 69] | 8.89 | – |
| CCSc1nnc2n1CCCN2C(=O)CN1CCOCC1 [ZINC 17173082, 12] | 9.83 | 6.35 |
| O[C@@H](CN1CCC(Oc2cccc(F)c2)CC1)c1cccs1 [ZINC 19294224, 9] | 9.46 | – |
| CN(Cc1nc2ccccc2s1)C[C@H](O)Cc1ccccc1 [ZINC 27406499, 25] | > 10 | – |
| N#C/C(=C\c1ccco1)C(=O)N1CCN(CCc2ccccc2)CC1 [ZINC 29218552, 47] | 10 | – |
| c1ccc(Cn2cncn2)c(CNCc2ccc(-n3ccnc3)cc2)c1 [ZINC 30900826, 10] | 10 | – |
| CC1CCN(CCC(=O)N2c3ccccc3C[C@@H]2C)CC1 [ZINC 39217391, 11] | 9.28 | – |
| Cc1cccc2nc(C(=O)NCC(c3ccco3)N(C)C)cn12 (configuration not stated) [ZINC 41903371, 52] | 10 | – |
| C[C@H](C1CC1)N(CCC(=O)N1CCc2ccccc21)C1CC1 [ZINC 42123507, 27] | > 10 | – |
| c1ccc(-c2n[nH]cc2CNCc2ccc(Cn3ccnc3)cc2)cc1 [ZINC 42228310, 26] | 9.31 | – |
| Cc1cccc2nc(C(=O)NCC(C)N(C)C)cn12 (configuration not stated) [ZINC 46272073, 50] | 10 | – |
| CN(CCCOc1ccccc1)CC(=O)N1CCc2ccccc21 [ZINC 48057418, 45] | 7.21 | – |
| CN(C)[C@H](CNC(=O)c1cc([N+](=O)[O-])cc([N+](=O)[O-])c1)c1ccco1 [ZINC 49944321, 48] | 7.77 | – |
| CN(CCOc1cccc(F)c1)CC(O)c1c(F)cccc1F (configuration not stated) [ZINC 51423503, 49] | 8.74 | – |
